Measurements as given in ChEMBL document CHEMBL1201862, “PubChem BioAssay data set” (2004).
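A five-concentration, 48-hour dose response in 96-well plates underlies each endpoint, interpolated linearly between surrounding concentrations. GI50 = concentration required for 50% inhibition of growth.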 Active and inactive are the calls of the source. No stated cut-off is given here; in the data, active = GI50 up to about 1.1 µM and inactive = higher.

Columns and labels:
Test in all cases: DTP human tumour cell line panel, 48 h
[1] = test system: SK-MEL-28
[2] = test system: MCF7
[3] = test system: MOLT-4
[4] = test system: UO-31
[5] = test system: SK-OV-3
[6] = test system: MDA-N
[7] = test system: NCI-H460
[8] = test system: SF-539
[9] = test system: NCI-H522
[10] = test system: A498
[11] = test system: DU-145
[12] = test system: UACC-257
[13] = test system: NCI-H23
[14] = test system: Malme-3M
[15] = test system: HOP-92
[16] = test system: 786-0
[17] = test system: SN12C
[18] = test system: CAKI-1
[19] = test system: OVCAR-8
[20] = test system: HCT-116

Measured: GI50

N#Cc1c(-c2ccc(Cl)cc2)cc(-c2nc3ccccc3[nH]2)nc1N
inactive: [1] 12.2 µM | [2] 3.49 µM | [3] 2.92 µM | [4] 9.1 µM | [5] 19.5 µM | [6] 6.49 µM | [7] 7.19 µM | [8] 15.3 µM | [9] 13.7 µM | [10] 8.85 µM | [11] 6.98 µM | [12] 5.14 µM | [13] 14.2 µM | [14] 16.6 µM | [15] 11 µM | [16] 11.3 µM | [17] 13.4 µM | [18] 17.9 µM | [19] 13 µM | [20] 10.3 µM

COc1cc(/C=C(\C#N)c2nc3ccccc3o2)ccc1O
inactive: [1] 17.7 µM | [2] 10 µM | [3] 28.5 µM | [4] 25.5 µM | [5] 17.7 µM | [6] 23 µM | [7] 15 µM | [8] 12 µM | [9] 13.3 µM | [10] 16.3 µM | [11] 25.6 µM | [12] 23.5 µM | [13] 24.2 µM | [14] 19.8 µM | [15] 14.1 µM | [16] 24.9 µM | [17] 34.7 µM | [18] 17.3 µM | [19] 21.6 µM | [20] 16.5 µM
